“And” between values parts separate entries of the source, which are not always exact repeats. Equal values may be shown once. Inconclusive results and toxic doses are left out. No stated cut-off is given here; in the data, active means T/C of 150% or more; inactive means T/C below 125%.
System: L1210 leukemia ip in BDF1 mice, survival T/C
Test: NCI In Vivo Anticancer Drug Screen. Data for tumor model L1210 Leukemia (intraperitoneal) in B6D2F1 (BDF1) mice
Conditions: endpoint: mean survival time, higher = longer survival
Procedure, shortened: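 Antitumor effect is assessed in tumor-bearing animals. Survival in the compound arm is compared with a vehicle-dosed control arm and expressed as their quotient.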

[1] = dose: 100.0 mg/kg/injection, schedule: Q04DX003 (ip), vehicle: saline with Tween-80
[2] = dose: 200.0 mg/kg/injection, schedule: Q04DX003 (ip), vehicle: saline with Tween-80
[3] = dose: 400.0 mg/kg/injection, schedule: Q04DX003 (ip), vehicle: saline with Tween-80
[4] = dose: 200.0 mg/kg/injection, schedule: Q04DX003 (ip), vehicle: Klucel (hydroxypropylcellulose) (HPC)
[5] = dose: 400.0 mg/kg/injection, schedule: Q04DX003 (ip), vehicle: Klucel (hydroxypropylcellulose) (HPC)
[6] = dose: 100.0 mg/kg/injection, schedule: Q01DX009 (ip), vehicle: saline with Tween-80
[7] = dose: 200.0 mg/kg/injection, schedule: Q01DX009 (ip), vehicle: saline with Tween-80
[8] = dose: 100.0 mg/kg/injection, schedule: Q04DX002 (ip), vehicle: Klucel (hydroxypropylcellulose) (HPC)
[9] = dose: 200.0 mg/kg/injection, schedule: Q04DX002 (ip), vehicle: Klucel (hydroxypropylcellulose) (HPC)
[10] = dose: 400.0 mg/kg/injection, schedule: Q04DX002 (ip), vehicle: Klucel (hydroxypropylcellulose) (HPC)

Measured: T/C

CC(=O)c1cccc([N+](=O)[O-])c1
inactive: dose: 100.0 mg/kg/injection, schedule: Q01DX009 (ip), vehicle: other 91 % of control | dose: 100.0 mg/kg/injection, schedule: Q04DX003 (ip), vehicle: other 102 % of control | [1] 105 % of control | dose: 200.0 mg/kg/injection, schedule: Q01DX009 (ip), vehicle: other 105 % of control | dose: 200.0 mg/kg/injection, schedule: Q04DX003 (ip), vehicle: other 100 % of control | [2] 106 % of control | dose: 400.0 mg/kg/injection, schedule: Q04DX003 (ip), vehicle: other 94 % of control | [3] 108 % of control

NC(CC(=O)NCCc1ccccc1)C(=O)NCCc1ccccc1 (stereo unspecified)
inactive: dose: 75.0 mg/kg/injection, schedule: Q01DX001 (ip), vehicle: other 102 % of control | dose: 150.0 mg/kg/injection, schedule: Q01DX001 (ip), vehicle: other 97 % of control | dose: 300.0 mg/kg/injection, schedule: Q01DX001 (ip), vehicle: other 97 % of control

N#Cc1ccc(-c2ccc(N)cc2)cc1
inactive: dose: 50.0 mg/kg/injection, schedule: Q01DX001 (ip), vehicle: carboxymethylcellulose (CMC) 88 % of control | dose: 100.0 mg/kg/injection, schedule: Q01DX001 (ip), vehicle: carboxymethylcellulose (CMC) 90 % of control | dose: 200.0 mg/kg/injection, schedule: Q01DX001 (ip), vehicle: carboxymethylcellulose (CMC) 88 % of control | dose: 400.0 mg/kg/injection, schedule: Q01DX001 (ip), vehicle: carboxymethylcellulose (CMC) 90 % of control

O=C1OC2(c3ccccc31)c1ccccc1-c1ccccc12
inactive: [1] 97 % of control | [2] 89 % of control

O=C(Cc1c[nH]c2ccccc12)N/N=C\c1c[nH]c2ccccc12
inactive: dose: 200.0 mg/kg/injection, schedule: Q01DX001 (ip), vehicle: saline 97 % of control | dose: 400.0 mg/kg/injection, schedule: Q01DX001 (ip), vehicle: saline 92 % of control

O=C1CN(CCl)C(=O)CN1CCl
inactive: dose: 50.0 mg/kg/injection, schedule: Q01DX009 (ip), vehicle: water 100 % of control | dose: 100.0 mg/kg/injection, schedule: Q01DX009 (ip), vehicle: water 101 % of control | dose: 100.0 mg/kg/injection, schedule: Q04DX003 (ip), vehicle: water 113 % of control | dose: 200.0 mg/kg/injection, schedule: Q04DX003 (ip), vehicle: water 110 % of control | dose: 400.0 mg/kg/injection, schedule: Q04DX003 (ip), vehicle: water 113 % of control

CS(=O)(=O)OCCN(CCOS(C)(=O)=O)c1ccc(C=Nc2cccc(Cl)c2)c(Cl)c1
inactive: dose: 100.0 mg/kg/injection, schedule: Q04DX003 (ip), vehicle: Klucel (hydroxypropylcellulose) (HPC) 106 % of control | [4] 105 % of control | [5] 113 % of control

CN(C(=O)c1ccc(Cl)c(Cl)c1)C(c1ccco1)P(=O)(c1ccccc1)c1ccccc1 (stereo unspecified)
inactive: [6] 90 % of control | dose: 100.0 mg/kg/injection, schedule: Q04DX002 (ip), vehicle: saline with Tween-80 96 % of control | [7] 103 % of control | dose: 200.0 mg/kg/injection, schedule: Q04DX002 (ip), vehicle: saline with Tween-80 90 % of control | dose: 400.0 mg/kg/injection, schedule: Q01DX009 (ip), vehicle: saline with Tween-80 93 % of control | dose: 400.0 mg/kg/injection, schedule: Q04DX002 (ip), vehicle: saline with Tween-80 93 % of control

CCC(=O)OC1(c2ccccc2)CCN(C/C=C/c2cccc3ccccc23)CC1
inactive: dose: 100.0 mg/kg/injection, schedule: Q01DX001 (ip), vehicle: gum acacia 103 % of control | dose: 200.0 mg/kg/injection, schedule: Q01DX001 (ip), vehicle: gum acacia 103 % of control

NNC(=O)c1cnccn1
inactive: dose: 16.0 mg/kg/injection, schedule: Q01DX015 (ip), vehicle: water 102 % of control | dose: 32.0 mg/kg/injection, schedule: Q01DX015 (ip), vehicle: water 115 % of control | dose: 64.0 mg/kg/injection, schedule: Q01DX015 (ip), vehicle: water 109 % of control | dose: 80.0 mg/kg/injection, schedule: Q01DX015 (ip), vehicle: water 105 % of control | dose: 100.0 mg/kg/injection, schedule: Q01DX001 (ip), vehicle: water 96 % of control | dose: 120.0 mg/kg/injection, schedule: Q01DX015 (ip), vehicle: water 113 % of control

O=C(Nc1ccc([N+](=O)[O-])cn1)Nc1cc([N+](=O)[O-])ccc1F
inactive: dose: 100.0 mg/kg/injection, schedule: Q01DX001 (ip), vehicle: Klucel (hydroxypropylcellulose) (HPC) 93 % of control | dose: 100.0 mg/kg/injection, schedule: Q01DX009 (ip), vehicle: Klucel (hydroxypropylcellulose) (HPC) 94 % of control and 89 % of control | [8] 95 % of control and 102 % of control | dose: 200.0 mg/kg/injection, schedule: Q01DX001 (ip), vehicle: Klucel (hydroxypropylcellulose) (HPC) 100 % of control | dose: 200.0 mg/kg/injection, schedule: Q01DX009 (ip), vehicle: Klucel (hydroxypropylcellulose) (HPC) 94 % of control and 89 % of control | [9] 92 % of control and 102 % of control | [4] 87 % of control | dose: 400.0 mg/kg/injection, schedule: Q01DX001 (ip), vehicle: Klucel (hydroxypropylcellulose) (HPC) 94 % of control | dose: 400.0 mg/kg/injection, schedule: Q01DX009 (ip), vehicle: Klucel (hydroxypropylcellulose) (HPC) 100 % of control | [10] 94 % of control and 95 % of control | [5] 92 % of control

O=C1CCN(C2(c3ccccc3)CCCCC2)CC1
inactive: dose: 100.0 mg/kg/injection, schedule: Q04DX002 (ip), vehicle: saline 92 % of control | dose: 200.0 mg/kg/injection, schedule: Q04DX002 (ip), vehicle: saline 103 % of control | dose: 400.0 mg/kg/injection, schedule: Q04DX002 (ip), vehicle: saline 97 % of control

CCCCCCCCCC(=O)Nc1ccc(CC)cc1
inactive: [8] 94 % of control | [9] 101 % of control | [10] 111 % of control

CCCCC(c1nc2c(c3c1CCCC3)CCCC2)C(O)(C(F)(F)F)C(F)(F)F (stereo unspecified)
inactive: dose: 25.0 mg/kg/injection, schedule: Q01DX009 (ip), vehicle: saline with Tween-80 102 % of control | dose: 50.0 mg/kg/injection, schedule: Q01DX009 (ip), vehicle: saline with Tween-80 104 % of control | [6] 93 % of control and 87 % of control | [1] 97 % of control | [7] 89 % of control | [2] 100 % of control | [3] 102 % of control

COc1cc(C(=O)NO)cc(OC)c1OC
inactive: [1] 97 % of control and 104 % of control | [2] 97 % of control and 110 % of control | [3] 97 % of control and 100 % of control

C=C1CC[N+]2(CCCC)CCCC12 (stereo unspecified)
inactive: dose: 12.5 mg/kg/injection, schedule: Q01DX009 (ip), vehicle: Klucel (hydroxypropylcellulose) (HPC) 103 % of control | dose: 25.0 mg/kg/injection, schedule: Q01DX009 (ip), vehicle: Klucel (hydroxypropylcellulose) (HPC) 97 % of control | dose: 50.0 mg/kg/injection, schedule: Q01DX009 (ip), vehicle: Klucel (hydroxypropylcellulose) (HPC) 95 % of control

Source: PubChem BioAssay AID248 (DTP/NCI, 2004)
